In the supplement of paper PMC10307832:

Legend:
Test in all cases: relative viability (nuclei count vs DMSO), 5 days (fraction); higher = more cells survive
Selumetinib + Pemetrexed = compound: Cn1cnc2c(F)c(Nc3ccc(Br)cc3Cl)c(C(=O)NOCCO)cc21 [Selumetinib] + Nc1nc2[nH]cc(CCc3ccc(C(=O)N[C@@H](CCC(=O)O)C(=O)O)cc3)c2c(=O)[nH]1 [Pemetrexed] (partner 0.2 µM)
Procedure, shortened: (§1)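 Lung cancer cell lines in 1536-well plates were dosed by pin tool the day after seeding, either with one drug alone or with a fixed anchor-drug dose plus five library-drug doses (not always all listed) in √10 steps. After 5 days, cells were fixed and their nuclei stained in one step (final 0.05% Triton X-100, 1% formaldehyde, 1 ug/ml Hoechst), then counted on 4× images. Relative viability is the nuclei count in treated wells divided by that in vehicle wells. Values are medians of duplicate plates.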

Venetoclax + Crizotinib = compound: CC1(C)CCC(CN2CCN(c3ccc(C(=O)NS(=O)(=O)c4ccc(NCC5CCOCC5)c([N+](=O)[O-])c4)c(Oc4cnc5[nH]ccc5c4)c3)CC2)=C(c2ccc(Cl)cc2)C1 [Venetoclax] + C[C@@H](Oc1cc(-c2cnn(C3CCNCC3)c2)cnc1N)c1c(Cl)ccc(F)c1Cl [Crizotinib] (partner 1 µM)
Procedure, shortened: as §1

Venetoclax + OSI-027 = compound: CC1(C)CCC(CN2CCN(c3ccc(C(=O)NS(=O)(=O)c4ccc(NCC5CCOCC5)c([N+](=O)[O-])c4)c(Oc4cnc5[nH]ccc5c4)c3)CC2)=C(c2ccc(Cl)cc2)C1 [Venetoclax] + COc1cccc2cc(-c3nc([C@H]4CC[C@H](C(=O)O)CC4)n4ncnc(N)c34)[nH]c12 [OSI-027] (partner 0.5 µM)
Procedure, shortened: as §1

Selumetinib + Phenformin = compound: Cn1cnc2c(F)c(Nc3ccc(Br)cc3Cl)c(C(=O)NOCCO)cc21 [Selumetinib] + N=C(N)NC(=N)NCCc1ccccc1 [Phenformin] (partner 250 µM)
Procedure, shortened: as §1

**Q.** With UMC-11 as the cell line, how does the relative viability (Selumetinib + Pemetrexed; first compound 0.02 µM) read?
**A.** Its relative viability is 0.771.

**Q.** And the relative viability (Selumetinib + Pemetrexed; first compound 0.06325 µM)?
**A.** Its relative viability is 0.788.

**Q.** What about the relative viability (Selumetinib + Pemetrexed; first compound 0.2 µM) of the same cell line?
**A.** The relative viability was 0.827.

**Q.** What about the relative viability (Selumetinib + Pemetrexed; first compound 0.6325 µM) of the same cell line?
**A.** Its relative viability is 0.903.

**Q.** What about the relative viability (Venetoclax + Crizotinib; first compound 0.01 µM) of the same cell line?
**A.** The relative viability was 0.625.

**Q.** And the relative viability (Venetoclax + Crizotinib; first compound 0.03162 µM)?
**A.** Its relative viability is 0.622.

**Q.** And the relative viability (Venetoclax + Crizotinib; first compound 0.1 µM)?
**A.** The relative viability was 0.653.

**Q.** What about the relative viability (Venetoclax + Crizotinib; first compound 0.3162 µM) of the same cell line?
**A.** Its relative viability is 0.636.

**Q.** And the relative viability (Venetoclax + Crizotinib; first compound 1 µM)?
**A.** Its relative viability is 0.614.

**Q.** And the relative viability (Venetoclax + OSI-027; first compound 0.01 µM)?
**A.** Its relative viability is 0.439.

**Q.** What about the relative viability (Venetoclax + OSI-027; first compound 0.03162 µM) of the same cell line?
**A.** Its relative viability is 0.46.

**Q.** And the relative viability (Venetoclax + OSI-027; first compound 0.1 µM)?
**A.** The relative viability was 0.465.

**Q.** And the relative viability (Venetoclax + OSI-027; first compound 0.3162 µM)?
**A.** The relative viability was 0.461.

**Q.** What about the relative viability (Venetoclax + OSI-027; first compound 1 µM) of the same cell line?
**A.** The relative viability was 0.428.

**Q.** What about the relative viability (Selumetinib + Phenformin; first compound 0.02 µM) of the same cell line?
**A.** The relative viability was 0.301.

**Q.** And the relative viability (Selumetinib + Phenformin; first compound 0.06325 µM)?
**A.** Its relative viability is 0.284.

**Q.** And the relative viability (Selumetinib + Phenformin; first compound 0.2 µM)?
**A.** The relative viability was 0.307.

**Q.** And the relative viability (Selumetinib + Phenformin; first compound 0.6325 µM)?
**A.** The relative viability was 0.323.
